Source: ChEMBL document CHEMBL1765077, “Nonterpenoid C15 acetogenins from Laurencia marilzae” (2011)

How the values were obtained:
Format in all cases: functional
HBL-100 = experiment: Antiproliferative activity against human HBL100 cells after 48 hrs; conditions: HBL-100, 48 h
T47D = experiment: Antiproliferative activity against human T47D cells after 48 hrs
A2780 = experiment: Antiproliferative activity against human A2780 cells after 48 hrs; conditions: A2780, 48 h
SW1573 = experiment: Antiproliferative activity against human SW1573 cells after 48 hrs; conditions: SW1573, 48 h
WiDr = experiment: Antiproliferative activity against human WiDr cells after 48 hrs
HeLa = experiment: Antiproliferative activity against human HeLa cells after 48 hrs

SMILES | GI50 (T47D) | GI50 (A2780) | GI50 (SW1573) | GI50 (HeLa) | GI50 (HBL-100) | GI50 (WiDr)
C/C=C/[C@H]1C/C=C\C[C@@H](Cl)[C@@H](C[C@H](C=C=CBr)OC(C)=O)O1 | > 10 µg/mL | > 10 µg/mL | > 10 µg/mL | > 10 µg/mL | > 10 µg/mL | > 10 µg/mL
C#C/C=C\CC(O)C(Cl)C/C=C\CC(Cl)C(Br)CC (mixture of isomers) | > 10 µg/mL | > 10 µg/mL | > 10 µg/mL | > 10 µg/mL | > 10 µg/mL | > 10 µg/mL
C/C=C/[C@H]1C/C=C\C[C@@H](Cl)[C@@H](C[C@@H](O)C=C=CBr)O1 [MARILZALLENE] | > 10 µg/mL | > 10 µg/mL | > 10 µg/mL | > 10 µg/mL | > 10 µg/mL | > 10 µg/mL
C[C@H]1/C=C/C[C@H](Br)[C@@H]2C[C@@H](Cl)[C@@H](C[C@H](C=C=CBr)O1)O2 [OBTUSALLENE IV] | > 10 µg/mL | > 10 µg/mL | > 10 µg/mL | > 10 µg/mL | > 10 µg/mL | > 10 µg/mL

Continued, in another order:

GI50 (T47D) | GI50 (A2780) | GI50 (SW1573) | GI50 (HeLa) | SMILES | GI50 (HBL-100) | GI50 (WiDr)
> 10 µg/mL | > 10 µg/mL | > 10 µg/mL | > 10 µg/mL | COC(=O)/C=C\[C@H]1C[C@H]2O[C@@H](C[C@H]2Cl)[C@@H](Br)C[C@H]2O[C@@H]2[C@H](C)O1 | > 10 µg/mL | > 10 µg/mL
> 10 µg/mL | > 10 µg/mL | > 10 µg/mL | > 10 µg/mL | C[C@@H]1O[C@@H](C=C=CBr)C[C@H]2O[C@@H](C[C@H]2Cl)[C@@H](Br)C[C@H]2O[C@H]12 | > 10 µg/mL | > 10 µg/mL
